Test system: P12-Ichikawa
Experiment: cell viability relative to DMSO control; higher = less cytotoxic
Conditions: 48 h
Summary of the method: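 Cells were incubated for 48 h at 37°C before CellTiter-Glo One luminescence was read. The cells were NOMO1 or SEM (500 cells/well) or P12-Ichikawa (1000 cells/well) leukemia cells, adapted for at least four passages in each medium and seeded in 1536-well plates (5 μl). Dosing used library compounds in DMSO applied by pin over 11 threefold points, 47 μM to 0.79 nM. Viability is the per-plate percentage of DMSO wells, with cell-free wells as background.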

[1] = HPLM + 10% dialyzed FBS, 0.000781 µM
[2] = HPLM + 10% dialyzed FBS, 0.00234 µM
[3] = HPLM + 10% dialyzed FBS, 0.00702 µM
[4] = HPLM + 10% dialyzed FBS, 0.0211 µM
[5] = HPLM + 10% dialyzed FBS, 0.0632 µM
[6] = HPLM + 10% dialyzed FBS, 0.19 µM
[7] = HPLM + 10% dialyzed FBS, 0.569 µM
[8] = HPLM + 10% dialyzed FBS, 1.71 µM
[9] = HPLM + 10% dialyzed FBS, 5.12 µM
[10] = HPLM + 10% dialyzed FBS, 15.4 µM
[11] = HPLM + 10% dialyzed FBS, 46.1 µM
[12] = RPMI 5 mM glucose + 10% FBS, 0.000781 µM
[13] = RPMI 5 mM glucose + 10% FBS, 0.00234 µM
[14] = RPMI 5 mM glucose + 10% FBS, 0.00702 µM
[15] = RPMI 5 mM glucose + 10% FBS, 0.0211 µM
[16] = RPMI 5 mM glucose + 10% FBS, 0.0632 µM
[17] = RPMI 5 mM glucose + 10% FBS, 0.19 µM
[18] = RPMI 5 mM glucose + 10% FBS, 0.569 µM
[19] = RPMI 5 mM glucose + 10% FBS, 1.71 µM
[20] = RPMI 5 mM glucose + 10% FBS, 5.12 µM
[21] = RPMI 5 mM glucose + 10% FBS, 15.4 µM
[22] = RPMI 5 mM glucose + 10% FBS, 46.1 µM
[23] = RPMI 5 mM glucose + 10% dialyzed FBS, 0.000781 µM
[24] = RPMI 5 mM glucose + 10% dialyzed FBS, 0.00234 µM
[25] = RPMI 5 mM glucose + 10% dialyzed FBS, 0.00702 µM
[26] = RPMI 5 mM glucose + 10% dialyzed FBS, 0.0211 µM
[27] = RPMI 5 mM glucose + 10% dialyzed FBS, 0.0632 µM
[28] = RPMI 5 mM glucose + 10% dialyzed FBS, 0.19 µM
[29] = RPMI 5 mM glucose + 10% dialyzed FBS, 0.569 µM
[30] = RPMI 5 mM glucose + 10% dialyzed FBS, 1.71 µM
[31] = RPMI 5 mM glucose + 10% dialyzed FBS, 5.12 µM
[32] = RPMI 5 mM glucose + 10% dialyzed FBS, 15.4 µM
[33] = RPMI 5 mM glucose + 10% dialyzed FBS, 46.1 µM

SMILES | cell viability [1] [%] | cell viability [2] [%] | cell viability [3] [%] | cell viability [4] [%] | cell viability [5] [%] | cell viability [6] [%] | cell viability [7] [%] | cell viability [8] [%] | cell viability [9] [%] | cell viability [10] [%] | cell viability [11] [%] | cell viability [12] [%] | cell viability [13] [%] | cell viability [14] [%] | cell viability [15] [%] | cell viability [16] [%] | cell viability [17] [%] | cell viability [18] [%] | cell viability [19] [%] | cell viability [20] [%] | cell viability [21] [%] | cell viability [22] [%] | cell viability [23] [%] | cell viability [24] [%] | cell viability [25] [%] | cell viability [26] [%] | cell viability [27] [%] | cell viability [28] [%] | cell viability [29] [%] | cell viability [30] [%] | cell viability [31] [%] | cell viability [32] [%] | cell viability [33] [%]
O=C(NCCCNc1nc(Nc2cccc(NC(=O)N3CCCC3)c2)ncc1I)c1cccs1 | 91.6 | 91.9 | 93 | 90.9 | 87.3 | 84 | 81.3 | 72.5 | 84.9 | 76.1 | 85.1 | 83.2 | 91 | 87.6 | 90 | 85.9 | 90.4 | 94.2 | 50 | 84.5 | 83.7 | 79.9 | 88.1 | 84.6 | 79.8 | 82.6 | 91.7 | 88.1 | 84.9 | 81.4 | 80.2 | 85.6 | 72.4
CC[C@H](NC(C)C)[C@H](O)c1ccc(O)c2[nH]c(=O)ccc12 | 108 | 111 | 102 | 106 | 99 | 102 | 101 | 105 | 102 | 92.1 | 97.8 | 102 | 106 | 104 | 101 | 96.9 | 107 | 108 | 94.3 | 95.2 | 94.1 | 92.6 | 91.4 | 98.2 | 97.6 | 95 | 100 | 97.1 | 98.2 | 89.9 | 93.5 | 95.1 | 93.8
CCCNCC(O)COc1ccccc1C(=O)CCc1ccccc1 (stereo not given) | 101 | 98.9 | 107 | 103 | 111 | 106 | 114 | 112 | 118 | 114 | 115 | 112 | 105 | 110 | 116 | 114 | 108 | 113 | 115 | 123 | 128 | 110 | 93.4 | 103 | 98.1 | 103 | 102 | 113 | 114 | 113 | 112 | 106 | 98.4
CC(C[N+](C)(C)C)OC(N)=O (stereo not given) | 109 | 121 | 116 | 122 | 114 | 113 | 120 | 118 | 111 | 110 | 102 |  |  |  |  |  |  |  |  |  |  |  | 122 | 119 | 122 | 125 | 122 | 119 | 114 | 128 | 122 | 109 | 102
C[C@H](NC(=O)Cc1cc(F)cc(F)c1)C(=O)N[C@@H]1C(=O)N(C)c2ccccc2-c2ccccc21 | 105 | 118 | 113 | 116 | 113 | 38.4 | 109 | 99.5 | 6.06 | 3.41 | 1.45 | 110 | 111 | 128 | 128 | 116 | 125 | 119 | 122 | 100 | 3.68 | 2.54 | 97.7 | 111 | 112 | 113 | 118 | 117 | 113 | 115 | 84.8 | 3.93 | 1.82
O=C(O)[C@@H](c1ccc(OCc2ccc3ccccc3n2)cc1)C1CCCC1 | 113 | 114 | 106 | 109 | 109 | 102 | 107 | 99.6 | 106 | 102 | 98.7 | 116 | 116 | 110 | 110 | 102 | 106 | 107 | 107 | 92.8 | 98 | 96.9 | 108 | 112 | 112 | 113 | 108 | 109 | 106 | 101 | 95.8 | 102 | 100
FC1=CC=C(CN2\C=C/C=C(/C(=O)N[C@@H](COC3=CC4=C(NC(=O)N4)C=C3)C5=CC=CC=C5)C2=O)C=C1F | 89.1 | 97.2 | 98.9 | 96.2 | 104 | 98.8 | 97.3 | 89.2 | 76.4 | 70.1 | 64.7 | 82.9 | 90.2 | 85.9 | 86.8 | 88.9 | 88.9 | 86.9 | 72.6 | 53.9 | 50.5 | 44.8 | 81.6 | 89.4 | 90.5 | 94.6 | 89.3 | 94.5 | 79.9 | 76.6 | 58.5 | 54.2 | 45.4
C[C@H]1C[C@H]2[C@@H]3CCC4=CC(=O)C=C[C@]4(C)[C@H]3C(=O)C[C@]2(C)[C@@]1(O)C(=O)CO | 91.4 | 96.5 | 93.1 | 95.6 | 88 | 92.7 | 87.6 | 94.8 | 88.3 | 101 | 93 | 91.3 | 98.1 | 94 | 90.7 | 94.7 | 99.7 | 94.9 | 97.2 | 100 | 95.7 | 85.3 | 83.7 | 91.7 | 80.1 | 89.7 | 84 | 85.6 | 82.7 | 83.7 | 82.2 | 85.6 | 70.5
CN[C@H]1[C@H](O[C@@H]2[C@H](O[C@@H]3[C@@H](O)[C@@H](O)[C@@H](NC(=N)N)[C@@H](O)[C@H]3NC(=N)N)O[C@H](C)[C@@]2(O)C=O)O[C@@H](CO)[C@@H](O)[C@H]1O | 117 | 117 | 120 | 108 | 112 | 115 | 110 | 110 | 99.9 | 108 | 111 | 108 | 109 | 107 | 112 | 120 | 122 | 102 | 95.5 | 94.7 | 97.8 | 103 | 118 | 115 | 136 | 123 | 112 | 105 | 89.3 | 86 | 105 | 104 | 116
O=C1CCC[C@@H]2[C@H]3CCC[N+]4([O-])CCC[C@@H](CN12)[C@@H]34 (stereo not given in full) | 88.3 | 89.2 | 100 | 102 | 98.8 | 92.9 | 105 | 102 | 89.5 | 98.6 | 97.7 | 83.5 | 80.8 | 89.7 | 95.1 | 95.5 | 97.2 | 87.7 | 94.7 | 87.3 | 99.9 | 88 | 78.2 | 84.9 | 94.1 | 94 | 93 | 83.5 | 81.4 | 90.8 | 90 | 89.6 | 89.2
N#CC1(c2ccc(NC(=O)c3cccnc3NCc3ccncc3)cc2)CCCC1 | 120 | 123 | 113 | 116 | 116 | 110 | 108 | 104 | 106 | 77.8 | 102 | 119 | 108 | 123 | 107 | 122 | 111 | 113 | 109 | 102 | 110 | 98.9 | 118 | 122 | 115 | 109 | 113 | 114 | 103 | 113 | 103 | 96.3 | 90.8
CC(=O)OCC(=O)[C@@]12OC(C)(C)O[C@@H]1C[C@H]3[C@@H]4C[C@H](F)C/5=C/C(=O)/C=C\[C@]5(C)[C@@]4(F)[C@@H](O)C[C@]23C | 107 | 119 | 111 | 117 | 110 | 94.7 | 76.7 | 74.5 | 71.6 | 74.5 | 72.4 | 106 | 128 | 119 | 115 | 115 | 84.2 | 68.5 | 70.8 | 62.1 | 64.2 | 67.5 | 117 | 107 | 114 | 107 | 87.8 | 84.4 | 62.8 | 57.6 | 55.1 | 54.7 | 56.9
Cc1ccc(NC(=O)Nc2cc(C(F)(F)F)ccc2F)cc1Nc1ccc2c(c1)NC(=O)/C2=C\c1ccc[nH]1 | 122 | 123 | 133 | 133 | 131 | 143 | 139 | 134 | 128 | 137 | 70.3 |  |  |  |  |  |  |  |  |  |  |  |  |  |  |  |  |  |  |  |  |  | 
COc1cc(Nc2ncc(F)c(Nc3ccc4c(n3)N(COP(=O)(O)O)C(=O)C(C)(C)O4)n2)cc(OC)c1OC | 97 | 102 | 101 | 102 | 108 | 106 | 105 | 103 | 110 | 108 | 98.2 | 100 | 98.2 | 89.6 | 100 | 97.4 | 96.8 | 92.4 | 95.7 | 95.2 | 93.9 | 87.4 | 92.8 | 94.8 | 98.4 | 98 | 103 | 97.7 | 93.9 | 91.1 | 101 | 91.6 | 91.6
OCCNC1CCCc2c1[nH]c1ccc(-c3ccccc3)cc21 (stereo not given) | 100 | 107 | 106 | 105 | 110 | 110 | 115 | 108 | 111 | 78.4 | 16.6 | 103 | 111 | 109 | 108 | 114 | 108 | 114 | 118 | 110 | 73.5 | 18.2 | 105 | 111 | 113 | 109 | 107 | 114 | 119 | 114 | 111 | 80.4 | 28.9
NCCCC(O)(P(=O)(O)O)P(=O)(O)O.O.O.O.[Na+] | 109 | 113 | 123 | 114 | 114 | 112 | 102 | 97.9 | 68.3 | 45.1 | 19.7 | 120 | 116 | 119 | 119 | 119 | 121 | 112 | 107 | 85.5 | 64.9 | 51.4 | 121 | 121 | 125 | 120 | 117 | 120 | 109 | 97.3 | 76.3 | 46.4 | 35.6

Reference: the supplement of paper PMC11451515
